Laboratory results taken from ChEMBL document CHEMBL3045935, “Benzoxepin derivatives: design, synthesis, and pharmacological evaluation with sedativehypnotic effect” (2012).

How the values were obtained:
Mus musculus [1] = experiment: Sedative-hypnotic activity in Mus musculus (mouse) assessed as decrease in onset of phenobarbital-induced sleep at 19.6 to 42.6 mg/kg, ip incubated for 30 min prior to phenobarbital challenge relative to phenobarbital-treated mouse; format: functional; details: dose mg/kg 19.6-42.6; route intraperitoneal
Mus musculus [2] = experiment: Sedative-hypnotic activity in Mus musculus (mouse) assessed as increase in duration of phenobarbital-induced sleep at 19.6 to 42.6 mg/kg, ip incubated for 30 min prior to phenobarbital challenge relative to phenobarbital-treated mouse; format: functional; details: dose mg/kg 19.6-42.6; route intraperitoneal

Row | SMILES | Time (Mus musculus [1]) [min] | Time (Mus musculus [2]) [min]
1 | CN1CCN(CC2CCOc3ccc(Cl)cc3C2=O)CC1 (configuration not stated) | 38.8 | 92.35
2 | O=C1CC2CCOc3ccc(Cl)cc3C2=NN1c1ccccc1 (configuration not stated) | 20 | 100.15
3 | O=C1/C(=C\c2ccccc2)CCOc2ccc(Cl)cc21 | 18 | 84.3
4 | COc1ccc(N2N=C3c4cc(Cl)ccc4OCCC3CC2=O)cc1 (configuration not stated) | 42.5 | 38.45
5 | CCC1(c2ccccc2)C(=O)NC(=O)NC1=O [PHENOBARBITAL] | 46.8 | 100.5
6 | O=C1/C(=C\c2ccc(F)cc2)CCOc2ccc(Cl)cc21 | 16.5 | 103.15
7 | CN(C)CC1CCOc2ccc(Cl)cc2C1=O (configuration not stated) | 34 | 61.3
8 | O=C1c2cc(Cl)ccc2OCCC1CN1CCOCC1 (configuration not stated) | 40.8 | 75.25
9 | O=C1/C(=C\c2ccc(Cl)cc2)CCOc2ccc(Cl)cc21 | 15 | 105.5
10 | O=C1CCCOc2ccc(Cl)cc21 | 34.5 | 59.5
11 | O=C1c2cc(Cl)ccc2OCCC1CN1CCN(c2ccccc2Cl)CC1 (configuration not stated) | 45.5 | 45.25
12 | CCC1(c2ccccc2)C(=O)NC(=O)N(C2CCOc3ccc(Cl)cc3C2=O)C1=O (configuration not stated) | 21.5 | 123.25
13 | COc1ccc(/C=C2/CCOc3ccc(Cl)cc3C2=O)cc1 | 17.6 | 79.4
14 | O=C1c2cc(Cl)ccc2OCCC1CN1CCCCC1 (configuration not stated) | 24.5 | 99.3
15 | O=C1CC2CCOc3ccc(Cl)cc3C2=NN1c1ccc(Cl)cc1 (configuration not stated) | 49.5 | 42.15
16 | O=C1c2cc(Cl)ccc2OCCC1Br (configuration not stated) | 47 | 39.15
